# Entries after “also recorded” stand apart in the source; their conditions may differ.
# System: iPS-HEP cells
# Experiment: ammonia metabolism test (Ammonia Test Wako) on iPS-derived hepatocytes
# Format: cell-based, human
# Details: compounds in differentiation induction medium III (FH1 final 50 μM, FPH1 final 20 μM); compared with use of feeder cells (HUVECs, MSCs); 2 mM ammonia, 24 hours
# Method: When HUVEC and MSC are used as feeder cells, perform co-culture as required as adhesion culture (refer to Non-patent document 1 cited below). • 2.11. Indicate the date, name of the cells, etc. on the culture plate, and carry out culture in an incubator at 37° C. and 5% CO2. • 2.12. Carry out an operation of removing the supernatant, and adding flesh medium III on every other day up to Day 17. • [Day 17: Completion of CiPS-Hep->ammonia metabolism test] • 1. Prepare HBM (cocktail)+aqueous ammonia (henceforth referred to as ammonia medium) in a volume of 1 ml/well×2.
# • 2. Remove the culture supernatant, and wash the cell surfaces once with 1 ml of HBM, and once with ammonia HBM. • 3. […]
# • 4. […] During the centrifugation, turn on the power sources of microplate reader and personal computer, and choose Tecan i-control. • 8. […] Remove a lid, set the plate on the microplate reader, and sway the plate (double click “Shaking”, choose “10 sec” and “Normal”, and click “Start”). • 11. […] Set the plate on the microplate reader, and sway the plate. • 13. […] Set the plate on the microplate reader, and sway the plate. • 15. […] Finely wipe the bottom of the plate, and set the plate on the microplate reader with adjusting the upper left corner. • 18. Measure absorbance (620 or 630 nm) (double click “Measure” of “Absorbance”, select the well for measurement at 620 nm in “Details”, and click “Start”).
row,Structure (SMILES),ammonia-metabolizing function-enhancing effect
1,"Cc1ccc(Cl)cc1N(CC(=O)Nc1c(F)cccc1F)S(C)(=O)=O [FPH1, 2-N-(5-chloro-2-methylphenyl)(methylsulfonamido)-N-(2,6-difluorophenyl)acetamide]",higher ammonia-metabolizing function-enhancing effect compared with use of feeder cells; also recorded: higher metabolism-enhancing effect compared with use of feeder cells
2,"CC(=O)Nc1ccc(Cc2ccc(NC(C)=O)cc2)cc1 [FH1, N,N′-(methylenebis)(4,1-phenylene)diacetamide]",higher ammonia-metabolizing function-enhancing effect compared with use of feeder cells; also recorded: higher metabolism-enhancing effect compared with use of feeder cells

# Reference: US20190062699A1, “HIGHLY FUNCTIONAL HEPATOCYTE AND USE THEREOF” (GAIA BioMedicine Inc., priority 2016, published 2019)
